According to the CheMixHub viscosity set:

Test: xn = mol fraction of the nth substance listed

CCCCOC(C)=O + CC(C)O
viscosity [mPa·s], 100 kPa
Conditions	x1 = 0.081	x1 = 0.1599	x1 = 0.24	x1 = 0.35	x1 = 0.44	x1 = 0.5601	x1 = 0.65	x1 = 0.74	x1 = 0.85	x1 = 0.9397
293.15 K	1.638	1.156	0.884	0.725	0.688	0.674	0.686	0.686	0.703	0.717
298.15 K	1.439	1.038	0.812	0.684	0.652	0.648	0.652	0.652	0.665	0.673
303.15 K	1.256	0.924	0.747	0.643	0.608	0.601	0.608	0.616	0.629	0.632
308.15 K	1.119	0.847	0.687	0.592	0.56	0.557	0.564	0.564	0.582	0.584
313.15 K	0.972	0.74	0.613	0.536	0.516	0.516	0.522	0.525	0.531	0.543
318.15 K	0.862	0.658	0.538	0.482	0.469	0.474	0.481	0.487	0.496	0.502
323.15 K	0.759	0.574	0.469	0.431	0.428	0.436	0.443	0.451	0.457	0.461

CCCCCCCC(=O)O + CC(C)[C@@H]1CC[C@@H](C)C[C@H]1O
viscosity [mPa·s]
Conditions	293.15 K	298 K	298.15 K	303.15 K	308.15 K	313.15 K	318.15 K	323.15 K
100 kPa, x1 = 0.4	19.83	–	15.29	12.01	9.58	7.8	6.43	5.37
101 kPa, x2 = 0.333	–	12	–	–	–	–	–	–

CCCN + CCC(C)(C)O
Conditions	viscosity [mPa·s]
308.15 K, 101 kPa, x2 = 0.9498	2.305

CCCCOC(C)=O + CCC(C)=O
308 K, 101 kPa
Conditions	viscosity [mPa·s]
x1 = 0.0999	0.468
x1 = 0.2002	0.484
x1 = 0.3	0.52
x1 = 0.4	0.533
x1 = 0.4997	0.569
x1 = 0.5997	0.584
x1 = 0.7	0.606
x1 = 0.7997	0.642
x1 = 0.9004	0.669

Oc1ccccc1Cl + CCC(C)=O
298.15 K, 101 kPa
Conditions	viscosity [mPa·s]
x1 = 0.1005	0.517
x1 = 0.1961	0.7
x1 = 0.3003	0.913
x1 = 0.3994	1.322
x1 = 0.501	1.744
x1 = 0.6001	2.277
x1 = 0.6991	2.736
x1 = 0.8006	3.091
x1 = 0.8991	3.315
